The values that follow come from patent US20070276008A1, “Pharmaceutical formulation comprising glycine as a stabilizer” (Eisai Company Limited, priority 1997, published 2007).

Series [1] is classed as physicochemical. The method, then:
A, B, and C contain 7.5 mg/mL glycine, equal to 100 mM glycine. D and E have 11.25 mg/mL glycine, equal to 150 mM glycine. F is the control without glycine.

A short description of series [2]: Glycine concentration and temperature studies: chemical stability (residual potency and impurity levels). The class given is physicochemical. The method, then: A, B, and C contain 7.5 mg/mL glycine, equal to 100 mM glycine. […] F is the control without glycine.
A short description of series [3]: Preliminary buffer evaluation (phosphate vs glycine-NaOH). The class given is physicochemical. The method, then: It is desirable that the pH of solutions of compound 1 and other compounds of the invention in 5% dextrose or normal saline remain in a range near about pH 10 to provide for an acceptable use period in a clinical setting. Phosphate and glycine buffer systems were tested.
Based on this propensity to precipitate, phosphate was disqualified as a buffer for the compounds of the invention.

Series [4] in a line: Reduced glycine concentration experiments: color change in 0.9% saline pH 10. The class given is physicochemical. The method, then:
Absorption measurements were taken at the zero time point, and at 2, 4, 6, and 8 hours after dissolution. […] The glycine concentration-dependence of compound 1 discoloration was evaluated at […] after dissolution.

Series [5] in a line: Effect of storage conditions (light, temperature) on absorbance 400-650 nm. The class given is physicochemical. As to conditions: 2 mg/mL, 0.9% saline. The method, then: The effect of exposure to light and temperature was evaluated as a function of time for 0.9% saline solutions containing 2 mg/mL compound 1, with or without 10 mM glycine-NaOH buffer, was evaluated by monitoring absorbance at 400, 450, 500, 600, and 650 nm.

Series [6] in a line: Discoloration on reconstitution in aqueous solutions for intravenous administration. The class given is physicochemical. The conditions noted are these: e.g. 5% dextrose or 0.9% saline. From the text: It has been found by the present inventors that anti-ulcerative compounds such as compound 1 and the compounds described by general formula I below discolor when they are reconstituted, i.e., dissolved, in aqueous solutions, particularly in solutions suitable for intravenous administration, e.g., 5% dextrose or 0.9% saline. Such solutions quickly turn yellow to yellow-brown.

The nature of series [7]: pH studies: chemical (HPLC) and physical (color) stability in water for injection. The conditions noted are these: for Chemical and physical stability: 24 hours.

Read-outs that look alike come from different tables or passages of the source.

As to `COCCCOc1ccnc(C[S+]([O-])c2nc3ccccc3[nH]2)c1C` (centres unmarked) [compound 1], the Color formation result in series [1] (5° C. compared to room temperature) is listed as “significantly retarded”; in series [3] (50 mM phosphate buffer, compared with unbuffered solutions) it was “color formation was not inhibited”. Moreover, the Discoloration result in series [1] (solutions devoid of glycine, regardless of temperature) is reported as “discolored very quickly”; in series [1] (solutions with greater glycine concentrations) it was “discolored more slowly”; in series [3] (100 mM glycine/NaOH, pH above 10), “substantially slower”. For the same compound, the “Difference in chemical stability between glycine formulations” value in series [2] (0 mM, 100 mM and 150 mM glycine) is given as “No substantial difference”. In addition, in series [2] (5° C., pH 10.5 to 11, 24 hours), the “Increase in impurity levels” value is given as “without measurable increases”. Further, the Impurities measured in series [2] (room temperature, pH 10.5, 24 hours) is recorded as above 1%. This compound also returned an Increase in impurities in series [2] (room temperature, pH 11 solution, 24 hours) below 0.5%. Also, in series [3] (phosphate-containing plugs), the Appearance on reconstitution entry is listed as “hazy solutions”. In addition, the Appearance after freeze-drying entry in series [3] (solutions in phosphate and glycine buffers) is listed as “white, well-formed plugs”. Moreover, the “Rate of discoloration (absorption)” value in series [4] (4 mg/mL, 0.9% saline pH 10, 25° C. dark, 0-8 hours, glycine-free vs 50 mM glycine) was “much greater rate”. The “Difference in absorbance spectrum between glycine concentrations” value in series [4] (4 mg/mL, 0.9% saline pH 10, 5, 10, 25, 50 mM glycine-NaOH, 5 hours) is given as “little difference”. The Absorbance result in series [4] (5 mM glycine-NaOH solution, 5 hours post-dissolution) is “noticeably higher absorbance”. The “Effect of glycine-NaOH buffer on absorption” value in series [5] (10 mM glycine-NaOH, all wavelengths, temperatures, lighting conditions) is recorded as “decreases absorption”. In series [5] (with or without 10 mM glycine-NaOH), the “Effect of exposure to light on color development” value is “no detrimental effect”. Besides, in series [5] (without glycine-NaOH buffer), the “Color development with increasing storage temperature” value is “increase in undesirable color development”. For the same compound, the “Color on reconstitution in aqueous solutions” value in series [6] is reported as “discolor”. Further, in series [7] (5° C. and room temperature, 8 mg/mL in WFI), the “Order of chemical and physical stability by pH” value is listed as “pH 11.5>pH 11>pH 10.5>pH 10>pH 9.5”. Also, in series [7] (pH 9.5, 8 mg/mL in WFI), the “Time until solutions began to assume a yellow color” value is at most 30 min. Further, the “Chemical and physical stability” value in series [7] (pH 10.5, cold temperatures (5° C.)) was “adequate”; in series [7] (pH 10.5, room temperature), “marginally stable”. Moreover, the “Stability for manufacture and handling in preparation for freeze drying” value in series [7] (pH 11 or greater, cold temperatures) is on record as “adequately stable”.
